Literature values in patent publication US12329862B2, “Transdermal therapeutic system containing asenapine” (LTS LOHMANN THERAPIE-SYSTEME AG, priority 2018, dated 2025).

bioavailability (if ingested): < 2%
terminal disposition half-life (sublingual administration, therapeutic doses): ≥ 24 h
Structure (SMILES): CN1C[C@H]2c3ccccc3Oc3ccc(Cl)cc3[C@@H]2C1 (relative stereo) [asenapine, (3aRS,12bRS)-rel-5-chloro-2,3,3a,12b-tetrahydro-2-methyl-1H-dibenz[2,3:6,7]oxepino[4,5-c]pyrrole]
Somnolence and anxiety, share of the patients (very common side effects): ≥ 10%
